Results on 21 compounds are retold here after ChEMBL document CHEMBL3612048, “Cytotoxic triterpenoid glycosides (saikosaponins) from the roots of Bupleurum chinense” (Bioorg Med Chem Lett, 2015).

For one assay, the system named is Bcap37. The experiment in a line: Cytotoxicity against human Bcap37 cells assessed as induction of cell death incubated for 2 days by MTT assay. The assay is classed as functional, cell-based. Particulars: Bcap37, 48 h. For orientation: Tetrazolium dyes change colour on reduction, which living cells bring about.
The next assay deals with A549. The assay is described as follows: Cytotoxicity against human A549 cells assessed as induction of cell death incubated for 2 days by MTT assay. Particulars: A549, 48 h. It counts as functional, cell-based.
A further assay has as its system HepG2. The experiment in a line: Cytotoxicity against human HepG2 cells assessed as induction of cell death incubated for 2 days by MTT assay. Particulars: HepG2, 48 h. It counts as functional, cell-based.
The test system of another assay is MCF7. The experiment in a line: Cytotoxicity against human MCF7 cells assessed as induction of cell death incubated for 2 days by MTT assay. It counts as functional, cell-based. Conditions: MCF7, 48 h.
The nature of assay [1]: Cytotoxicity against human Hep3B cells assessed as induction of cell death incubated for 2 days by MTT assay. Conditions: 48 h. It counts as functional, cell-based, Hep 3B2.

As to `C[C@H]1O[C@@H](O[C@H]2CC[C@@]3(C)[C@@H](CC[C@]4(C)[C@@H]3C=C[C@]35OC[C@@]6(CCC(C)(C)C[C@H]63)[C@@H](O)C[C@]54C)[C@]2(C)CO)[C@H](O)[C@@H](O)[C@H]1O`, the half-inhibitory concentration (IC50) in the assay with Bcap37 was 17.3 µM; in the assay with A549, greater than 50 µM; in the assay on HepG2, 13.3 µM; in the assay with MCF7, 43.3 µM; in assay [1] it was 19.8 µM.

As to `CO[C@@H]1C=C2[C@@H]3CC(C)(C)CC[C@]3(CO)[C@@H](O)C[C@@]2(C)[C@]2(C)CC[C@H]3[C@](C)(CO)[C@@H](O[C@@H]4O[C@H](C)[C@H](O)[C@H](O)[C@H]4O)CC[C@]3(C)[C@@H]12`, the IC50 is greater than 50 µM with Bcap37; greater than 50 µM with A549; 30.2 µM in the assay with HepG2; greater than 50 µM with MCF7; greater than 50 µM in assay [1].

In the case of `CO[C@@H]1C=C2[C@@H]3CC(C)(C)CC[C@]3(CO)[C@@H](O)C[C@@]2(C)[C@]2(C)CC[C@H]3C(C)(C)[C@@H](O[C@@H]4O[C@H](C)[C@H](O)[C@H](O)[C@H]4O)CC[C@]3(C)[C@@H]12`, the IC50 (in the assay on Bcap37; with A549; in the assay with HepG2; with MCF7; in assay [1]) was greater than 50 µM throughout.

As to `CC(=O)OC[C@@]1(C)[C@@H]2CC[C@]3(C)[C@H](C=C[C@]45OC[C@@]6(CCC(C)(C)C[C@H]64)[C@@H](O)C[C@]53C)[C@@]2(C)CC[C@@H]1O[C@@H]1O[C@H](C)[C@H](O)[C@H](O)[C@H]1O`, the IC50 in the assay with Bcap37 worked out at 26 µM; in the assay on A549, 34.1 µM; with HepG2, 9.76 µM; in the assay with MCF7, 33.5 µM; in assay [1], 24.8 µM.

As to `C[C@H]1O[C@@H](O[C@H]2CC[C@@]3(C)[C@@H](CC[C@]4(C)[C@@H]3C=CC3=C5CC(C)(C)CC[C@]5(CO)C(=O)C[C@]34C)[C@]2(C)CO)[C@H](O)[C@@H](O[C@@H]2O[C@H](CO)[C@@H](O)[C@H](O)[C@H]2O)[C@H]1O`, the IC50 in the assay on Bcap37 was greater than 50 µM; with A549, greater than 50 µM; in the assay with HepG2, 40.2 µM; in the assay on MCF7, greater than 50 µM; in assay [1], greater than 50 µM.

For the compound `CO[C@@H]1C=C2C3CC(C)(C)CC[C@]3(CO)[C@H](O)C[C@@]2(C)[C@]2(C)CC[C@H]3[C@](C)(CO)[C@@H](O[C@@H]4O[C@H](C)[C@H](O)[C@H](O[C@@H]5O[C@H](CO)[C@@H](O)[C@H](O)[C@H]5O)[C@H]4O)CC[C@]3(C)[C@@H]12` (stereo partly specified), the IC50 (with Bcap37; in the assay with A549; with HepG2; in the assay with MCF7; in assay [1]) was greater than 50 µM throughout.

`C[C@H]1O[C@@H](O[C@H]2CC[C@@]3(C)[C@@H](CC[C@]4(C)[C@@H]3C=C[C@]35OC[C@@]6(CCC(C)(C)C[C@H]63)[C@H](O)C[C@]54C)[C@]2(C)CO)[C@H](O)[C@@H](O)[C@H]1O`: the IC50 in the assay on Bcap37 is 32 µM; with A549 it was greater than 50 µM; with HepG2, 9.34 µM; with MCF7 it was 49 µM; in assay [1], 20.4 µM.

With `C[C@H]1O[C@@H](O[C@H]2CC[C@@]3(C)[C@@H](CC[C@]4(C)[C@@H]3C=C[C@]35OC[C@@]6(CCC(C)(C)C[C@H]63)[C@H](O)C[C@]54C)[C@]2(C)CO)[C@H](O)[C@@H](O[C@@H]2O[C@H](CO)[C@@H](O)[C@H](O)[C@H]2O)[C@H]1O`, the IC50 in the assay on Bcap37 worked out at 10.7 µM; with A549 it was 30.8 µM; with HepG2 it was 4.88 µM; in the assay with MCF7 it was 7.68 µM; in assay [1] it was 9.61 µM.

On to `C[C@H]1O[C@@H](O[C@H]2CC[C@]3(C)[C@H]4C=C[C@]56OC[C@@]7(CCC(C)(C)C[C@H]75)[C@@H](O)C[C@@]6(C)[C@]4(C)CC[C@H]3C2(C)C)[C@H](O)[C@@H](O[C@@H]2O[C@H](CO)[C@@H](O)[C@H](O)[C@H]2O)[C@H]1O`, for which the IC50 in the assay on Bcap37 is 15.4 µM; in the assay on A549, greater than 50 µM; with HepG2, 20.5 µM; in the assay with MCF7, 21.3 µM; in assay [1], 16.7 µM.

With `CC(=O)O[C@H]1[C@H](O[C@H]2[C@@H](O)[C@@H](C)O[C@@H](O[C@H]3CC[C@@]4(C)[C@@H](CC[C@]5(C)[C@@H]4C=C[C@]46OC[C@@]7(CCC(C)(C)C[C@H]74)[C@@H](O)C[C@]65C)[C@]3(C)CO)[C@@H]2O)O[C@H](CO)[C@@H](O)[C@@H]1O`, the IC50 in the assay on Bcap37 is 17.7 µM; in the assay on A549, 38.9 µM; in the assay with HepG2, 20.1 µM; in the assay with MCF7, 30.1 µM; in assay [1] it was 5.74 µM.

As for `CC(=O)O[C@@H]1[C@@H](O)[C@H](O[C@H]2[C@@H](O)[C@@H](C)O[C@@H](O[C@H]3CC[C@@]4(C)[C@@H](CC[C@]5(C)[C@@H]4C=C[C@]46OC[C@@]7(CCC(C)(C)C[C@H]74)[C@@H](O)C[C@]65C)[C@]3(C)CO)[C@@H]2O)O[C@H](CO)[C@H]1O`, the IC50 with Bcap37 was 26.6 µM; in the assay on A549 it was 38.2 µM; in the assay on HepG2, 12.9 µM; in the assay on MCF7, 22.2 µM; in assay [1], 13.7 µM.

Consider `CC(=O)OC[C@H]1O[C@@H](O[C@H]2[C@@H](O)[C@@H](C)O[C@@H](O[C@H]3CC[C@@]4(C)[C@@H](CC[C@]5(C)[C@@H]4C=C[C@]46OC[C@@]7(CCC(C)(C)C[C@H]74)[C@@H](O)C[C@]65C)[C@]3(C)CO)[C@@H]2O)[C@H](O)[C@@H](O)[C@@H]1O`, for which the IC50 with Bcap37 worked out at 34.1 µM; in the assay on A549 it was 35.3 µM; with HepG2, 20.8 µM; with MCF7, 36.2 µM; in assay [1], 16.9 µM.

As for `CC(=O)OC[C@@]1(C)[C@@H]2CC[C@]3(C)[C@H](C=C[C@]45OC[C@@]6(CCC(C)(C)C[C@H]64)[C@@H](O)C[C@]53C)[C@@]2(C)CC[C@@H]1O[C@@H]1O[C@H](C)[C@H](O)[C@H](O[C@@H]2O[C@H](CO)[C@@H](O)[C@H](O)[C@H]2O)[C@H]1O`, the IC50 (in the assay with Bcap37; in the assay with A549; in the assay on HepG2; in the assay on MCF7; in assay [1]) was greater than 50 µM in each case.

For the compound `C[C@@H]1O[C@@H](O[C@H]2[C@H](O)[C@@H](O)[C@H](O[C@H]3CC[C@]4(C)[C@H]5C=C[C@]67OC[C@@]8(CCC(C)(C)C[C@H]86)[C@@H](O)C[C@@]7(C)[C@]5(C)CC[C@H]4C3(C)C)O[C@@H]2CO[C@@H]2O[C@H](CO)[C@@H](O)[C@H](O)[C@H]2O)[C@H](O)[C@H](O)[C@H]1O`, the concentration for half-maximal inhibition (IC50) (with Bcap37; in the assay on A549; in the assay on HepG2; with MCF7; in assay [1]) was greater than 50 µM in each case.

As to `CC(=O)OC[C@H]1O[C@@H](O[C@H]2[C@@H](O)[C@@H](C)O[C@@H](O[C@H]3CC[C@@]4(C)[C@@H](CC[C@]5(C)[C@@H]4C=C[C@]46OC[C@@]7(CCC(C)(C)C[C@H]74)[C@H](O)C[C@]65C)[C@]3(C)CO)[C@@H]2O)[C@H](O)[C@@H](O)[C@@H]1O`, the IC50 in the assay on Bcap37 stood at 17.7 µM; in the assay with A549, 15.3 µM; in the assay with HepG2, 8.29 µM; in the assay on MCF7, 9.98 µM; in assay [1], 7.59 µM.

For `C[C@H]1O[C@@H](O[C@H]2CC[C@@]3(C)[C@@H](CC[C@]4(C)[C@@H]3C=CC3=C5CC(C)(C)CC[C@]5(CO)[C@H](O)C[C@]34C)[C@]2(C)CO)[C@H](O)[C@@H](O)[C@H]1O`, the IC50 is 38.4 µM with Bcap37; greater than 50 µM in the assay with A549; 18.9 µM in the assay on HepG2; 29.6 µM in the assay on MCF7; 16.5 µM in assay [1].

On to `C[C@H]1O[C@@H](O[C@H]2CC[C@@]3(C)[C@@H](CC[C@]4(C)[C@@H]3C=CC3=C5CC(C)(C)CC[C@]5(CO)[C@@H](O)C[C@]34C)[C@]2(C)CO)[C@H](O)[C@@H](O)[C@H]1O`, for which the IC50 in the assay on Bcap37 was 43.2 µM; in the assay on A549, greater than 50 µM; in the assay on HepG2, 26.2 µM; in the assay with MCF7 it was 42.1 µM; in assay [1] it was 19.8 µM.

On to `C[C@H]1O[C@@H](O[C@H]2CC[C@@]3(C)[C@@H](CC[C@]4(C)[C@@H]3C=CC3=C5CC(C)(C)CC[C@]5(CO)[C@@H](O)C[C@]34C)[C@]2(C)CO)[C@H](O)[C@@H](O[C@@H]2O[C@H](CO)[C@@H](O)[C@H](O)[C@H]2O)[C@H]1O`, for which the concentration for half-maximal inhibition (IC50) (in the assay with Bcap37; in the assay with A549; in the assay with HepG2; in the assay on MCF7; in assay [1]) was greater than 50 µM each time.

Take `C[C@H]1O[C@@H](O[C@H]2CC[C@@]3(C)[C@@H](CC[C@]4(C)[C@@H]3C=C[C@]35OC[C@@]6(CCC(C)(C)C[C@H]63)C(=O)C[C@]54C)[C@]2(C)CO)[C@H](O)[C@@H](O[C@@H]2O[C@H](CO)[C@@H](O)[C@H](O)[C@H]2O)[C@H]1O`: the IC50 is 20.2 µM with Bcap37; 34.1 µM in the assay on A549; 20.6 µM in the assay with HepG2; 24 µM in the assay with MCF7; 7.75 µM in assay [1].

For `O=c1[nH]cc(F)c(=O)[nH]1` [FLUOROURACIL], the half-maximal inhibitory concentration (IC50) in assay [1] worked out at 1.5 µM.

With `C[C@H]1O[C@@H](O[C@H]2CC[C@@]3(C)[C@@H](CC[C@]4(C)[C@@H]3C=C[C@]35OC[C@@]6(CCC(C)(C)C[C@H]63)[C@@H](O)C[C@]54C)[C@]2(C)CO)[C@H](O)[C@@H](O[C@@H]2O[C@H](CO)[C@@H](O)[C@H](O)[C@H]2O)[C@H]1O` [SAIKOSAPONIN A], the IC50 is 14 µM with Bcap37; 14.5 µM with A549; 8.34 µM with HepG2; 19 µM with MCF7; 13 µM in assay [1].

The term IC50 denotes the concentration that inhibits the measured activity by half.
